Data reported in patent US9745302B2 (TriOptoTec GmbH, priority 2011, dated 2017).
Structures can show the parent of a compound that is named as a salt.

Assays:
[1] = tested on: Escherichia coli (ATCC number: 25922); assay: Phototoxicity test (photodynamic inactivation, CFU count by Miles and Misra); format: cell-based; conditions: irradiated at 50 mW/cm^2, 210 sec, 390-500 nm, CFU/ml counted after 24 h, median of 3
Experimental: (§1) A sample of the bacterial strain Staphylococcus aureus (ATCC number: 25923) or Escherichia coli (ATCC number: 25922) was taken from a cryogenically frozen culture, isolated on Müller-Hinton agar plates and cultivated under aerobic conditions at 37° C. in an overnight culture. Thereafter, 5 ml of Müller-Hinton liquid medium were inoculated with a smear of the bacterial culture (single colony) and incubated at 37° C. overnight. The bacterial suspension thus obtained was centrifuged at 2500 rpm for 10 min and the bacterial pellet obtained was resuspended in 5 ml of sterile PBS. The optical density of the bacterial suspension for the phototoxicity tests was OD600 nm=0.6, which corresponds to a bacteria count of ˜[…] bacteria per ml. The biochemical analysis and resistance determination of the bacteria were conducted with the VITEK2 system according to the M100-S14 guidelines from the NCCLS (2004).
(§2) 200 μl of a bacterial suspension (bacterial density: 10^8-10^12/ml) were incubated with 200 μl of each of various concentrations of the photosensitizers to be tested at room temperature for 10 min or 30 min. Thereafter, the bacteria were washed twice with distilled water and resuspended in 200 μl of distilled water, and the entire volume was transferred to a 96-well microtiter plate and then irradiated. The photosensitizers used were dissolved in distilled water and various dilution series were prepared (0 μM, 1 μM, 10 μM, 100 μM).
(§3) For sensitization, the Omnicure Series 2000 lamp (Photonics Solutions Inc., Edinburgh, UK) was used, which emits light from a range from 390 nm to 500 nm and has emission maxima Emax at 405 nm and 436 nm. The power applied in each case was 50 mW/cm^2.
(§4) Irradiated and unirradiated samples were used as controls. Likewise run were bacterial suspensions incubated only with photosensitizer (dark control).
(§5) The determination of the colony-forming units (CFU) per ml was conducted by the method published by Miles and Misra (Miles, A A; Misra, S S, Irwin, J O (1938 November). “The estimation of the bactericidal power of the blood.”. The Journal of hygiene 38 (6): 732-49). For this purpose, serial dilutions from 10^−2 to 10^−9 of the corresponding bacterial suspension were prepared. 3×20 μl of each of the corresponding bacterial dilutions were then dripped onto Müller-Hinton plates and incubated at 37° C. for 24 h. Thereafter, the number of surviving colony-forming units (CFU) was determined. Each of the experiments was repeated three times.
(§6) The effectiveness of phototoxicity with respect to bacteria after irradiation was defined according to the following guidelines for hand hygiene in the health sector (Boyce, J. M., and D. Pittet. 2002. Guideline for Hand Hygiene in Health-Care Settings: recommendations of the Healthcare Infection Control Practices Advisory Committee and the HICPAC/SHEA/APIC/IDSA Hand Hygiene Task Force. Infect Control Hosp Epidemiol 23: p. 3-40): • reduction in the CFU/ml by 1 log10 stage ? 90% effectiveness • reduction in the CFU/ml by 3 log10 stages ? 99.9% effectiveness • reduction in the CFU/ml by 5 log10 stages ? 99.999% effectiveness
(§7) For effective inactivation, the decrease of ≧3 log10 stages can therefore be adopted, and S. aureus and E. coli were chosen as examples of representatives from the group of the Gram-positive and Gram-negative bacteria (see Boyce J. M and D. Pittet 2009).

[2] = tested on: Staphylococcus aureus (ATCC number: 25923); assay: as above; format: cell-based; conditions: irradiated at 50 mW/cm^2, 210 sec, 390-500 nm, CFU/ml counted after 24 h, median of 3
Experimental: as §1, §2, §3, §4, §5, §6, §7

**Q.** Which results are given for `Cc1cc2nc3c(=O)[nH]c(=O)nc-3n(CC(OC(=O)C(N)CCCCN)C(OC(=O)C(N)CCCCN)C(COC(=O)C(N)CCCCN)OC(=O)C(N)CCCCN)c2cc1C` (centres unmarked)?
**A.** Required concentration [μM] to achieve a reduction by ≧3log10 stages (decrease by 99.9%), irradiation at 10.5 J/cm^2, E. coli ([1]; incubation 10 min): 10 μM; Required concentration [μM] to achieve a reduction by ≧3log10 stages (decrease by 99.9%), irradiation at 10.5 J/cm^2, S. aureus ([2]; incubation 10 min): 10 μM

**Q.** With `Cc1cc2nc3c(=O)n(CCN)c(=O)nc-3n(CCN)c2cc1C` [FL-02, 3,10-bis(2′-aminoeth-1′-yl)-7,8-dimethylbenzo[g]pteridine-2,4-dione hydrochloride] as the compound, how does the “Required concentration [μM] to achieve a reduction by ≧3log10 stages (decrease by 99.9%), irradiation at 10.5 J/cm^2, E. coli” value ([1]; incubation 10 min) read?
**A.** 10 μM

**Q.** And the “Required concentration [μM] to achieve a reduction by ≧3log10 stages (decrease by 99.9%), irradiation at 10.5 J/cm^2, S. aureus” value ([2]; incubation 10 min)?
**A.** 10 μM

**Q.** Which results are given for `CC(=O)OCC(OC(C)=O)C(OC(C)=O)C(Cn1c2nc(=O)n(CCC[n+]3ccc(-c4cc[n+](C)cc4)cc3)c(=O)c-2nc2cc(C)c(C)cc21)OC(C)=O.[I-].[I-]` (centres unmarked) [FL-08, 1-{3-[7,8-dimethyl-2,4-dioxo-10-(2,3,4,5-tetraacetoxypentyl)-4,10-dihydro-2H-benzo[g]pteridin-3-yl]propyl}methyl-[4,4′]bipyridinyl-1-ium diiodide]?
**A.** Required concentration [μM] to achieve a reduction by ≧3log10 stages (decrease by 99.9%), irradiation at 10.5 J/cm^2, E. coli ([1]; incubation 10 min): 1 μM; Required concentration [μM] to achieve a reduction by ≧3log10 stages (decrease by 99.9%), irradiation at 10.5 J/cm^2, S. aureus ([2]; incubation 10 min): 1 μM

**Q.** Which “Required concentration [μM] to achieve a reduction by ≧3log10 stages (decrease by 99.9%), irradiation at 10.5 J/cm^2, E. coli” value ([1]; incubation 10 min) does the source give for `CCCCn1c2nc(=O)n(CCC[n+]3ccc(-c4cc[n+](C)cc4)cc3)c(=O)c-2nc2cc(C)c(C)cc21.[I-].[I-]` [FL-08b, 1-{3-[7,8-dimethyl-2,4-dioxo-10-(butyl)-4,10-dihydro-2H-benzo[g]pteridin-3-yl]-propyl}methyl-[4,4′]bipyridinyl-1-ium diiodide] here?
**A.** 50 μM

**Q.** What about the “Required concentration [μM] to achieve a reduction by ≧3log10 stages (decrease by 99.9%), irradiation at 10.5 J/cm^2, S. aureus” value ([2]; incubation 10 min) of the same compound?
**A.** 10 μM

**Q.** How did the “Required concentration [μM] to achieve a reduction by ≧3log10 stages (decrease by 99.9%), irradiation at 10.5 J/cm^2, E. coli” value ([1]; incubation 30 min) turn out when `CC[N+](CC)(CC)Cc1cc2c(cc1C)nc1c(=O)n(CCN)c(=O)nc-1n2CCN.Cl.Cl.[Br-]` [FL-13, [3,10-bis(2-aminoethyl)-7-methyl-2,4-dioxo-2,3,4,10-tetrahydro-benzo[g]pteridin-8-ylmethyl]triethylammonium bromide dihydrochloride] was run?
**A.** 10 μM

**Q.** And the “Required concentration [μM] to achieve a reduction by ≧3log10 stages (decrease by 99.9%), irradiation at 10.5 J/cm^2, S. aureus” value ([2]; incubation 30 min)?
**A.** 10 μM

**Q.** For `CCCCn1c2nc(=O)n(CC[N+](C)(C)C)c(=O)c-2nc2cc(C)c(C[N+](CC)(CC)CC)cc21.[Br-].[Br-]` [FL-15, [10-butyl-3-(2-trimethylammoniumethyl)-7-methyl-2,4-dioxo-2,3,4, 10-tetrahydrobenzo[g]pteridin-8-ylmethyl]triethylammonium dibromide], which “Required concentration [μM] to achieve a reduction by ≧3log10 stages (decrease by 99.9%), irradiation at 10.5 J/cm^2, E. coli” value ([1]; incubation 30 min) is on record?
**A.** 10 μM

**Q.** And the “Required concentration [μM] to achieve a reduction by ≧3log10 stages (decrease by 99.9%), irradiation at 10.5 J/cm^2, S. aureus” value ([2]; incubation 30 min)?
**A.** 10 μM

**Q.** `Cc1cc2nc3c(=O)n(CC[N+](C)(C)C)c(=O)nc-3n(CC[N+](C)(C)C)c2cc1C.[I-].[I-]` [FL-17, 3,10-bis(2-trimethylammoniumethyl)-7,8-dimethyl-10H-benzo[g]pteridine-2,4-dione dibromide] was tested. Which “Required concentration [μM] to achieve a reduction by ≧3log10 stages (decrease by 99.9%), irradiation at 10.5 J/cm^2, E. coli” value ([1]; incubation 30 min) did it give?
**A.** 100 μM

**Q.** And the “Required concentration [μM] to achieve a reduction by ≧3log10 stages (decrease by 99.9%), irradiation at 10.5 J/cm^2, S. aureus” value ([2]; incubation 30 min)?
**A.** 100 μM

**Q.** With `Cc1cc2nc3c(=O)n(CCN)c(=O)nc-3n(CC[N+](C)(C)CCN)c2cc1C.Cl.Cl.[Cl-]` [FL-24, (2-aminoethyl)-{2-[3-(2-aminoethyl)-7,8-dimethyl-2,4-dioxo-3,4-dihydro-2H-benzo[g]pteridin-10-yl]ethyl}dimethylammonium chloride dihydrochloride] as the compound, how does the “Required concentration [μM] to achieve a reduction by ≧3log10 stages (decrease by 99.9%), irradiation at 10.5 J/cm^2, E. coli” value ([1]; incubation 30 min) read?
**A.** >100^(*^) μM

**Q.** And the “Required concentration [μM] to achieve a reduction by ≧3log10 stages (decrease by 99.9%), irradiation at 10.5 J/cm^2, S. aureus” value ([2]; incubation 30 min)?
**A.** 10 μM

**Q.** With `Cc1cc2nc3c(=O)n(CC[N+](C)(C)C)c(=O)nc-3n(CC[N+](C)(C)CC[N+](C)(C)C)c2cc1C.[Br-].[Br-].[Br-]` [FL-26, 3-(2-trimethylammoniumethyl)-10-{2-[(2-trimethylammoniumethyl)dimethyl-ammonium]ethyl}-7,8-dimethyl-10H-benzo[g]pteridine-2,4-dione tribromide] as the compound, how does the “Required concentration [μM] to achieve a reduction by ≧3log10 stages (decrease by 99.9%), irradiation at 10.5 J/cm^2, E. coli” value ([1]; incubation 30 min) read?
**A.** >100^(*^) μM

**Q.** What about the “Required concentration [μM] to achieve a reduction by ≧3log10 stages (decrease by 99.9%), irradiation at 10.5 J/cm^2, S. aureus” value ([2]; incubation 30 min) of the same compound?
**A.** 10 μM

**Q.** Which results are given for `Cc1cc2nc3c(=O)[nH]c(=O)nc-3n(CCNCCN)c2cc1C.Cl.Cl` [FL-27, (2-aminoethyl)-[2-(7,8-dimethyl-2,4-dioxo-3,4-dihydro-2H-benzo[g]pteridin-10-yl)ethyl]amine dihydrochloride]?
**A.** Required concentration [μM] to achieve a reduction by ≧3log10 stages (decrease by 99.9%), irradiation at 10.5 J/cm^2, E. coli ([1]; incubation 30 min): 100 μM; Required concentration [μM] to achieve a reduction by ≧3log10 stages (decrease by 99.9%), irradiation at 10.5 J/cm^2, S. aureus ([2]; incubation 30 min): 10 μM
